Data published in patent publication US9365481B2, “Cyclohexenone compositions and process for making thereof” (Golden Biotechnology Corporation, priority 2013, dated 2016).

Test system: H838
Experiment: CCK-8 cell viability assay, H838
Format: cell-based, human
Conditions: H838 cells, statement in words
Experimental: Cell viability was measured using Cell Counting Kit-8 (CCK-8, Enzo Life Sciences, Farmingdale, N.Y.). In this assay, WST-8 is reduced by dehydrogenases in cells to produce a yellow-colored product (formazan), which is soluble in culture medium. The amount of formazan generated is directly proportional to the number of living cells. After treatment, CCK-8 solution was added to each well and incubated for 4 h. The concentration of formazan was measured with a spectrophotometer at an absorbance wavelength of 450 nm. Cell viability was expressed as a percentage of the corresponding control.
To determine whether the cytotoxic effects of Compound 1 correlate with the presence of Ras mutations, cell lines derived from human lung cancer (A549 and H838), liver cancer (HepG2 and Hep3B), and leukemia (K562 and THP-1) with wild-type Ras (H838, Hep3B, and K562) or mutant Ras (A549, HepG2, and THP-1) were used. Cell viability was measured after 48 h of Compound 1 treatment.
Next, the IC50 values for Compound 1 analogs (Compounds 29, 30 and 31), a metabolite (Compound 27), and analogues isolated from filamentous A. camphorata (Compounds 25, 26, 28) were determined in H838 cells. […] (Table 1)

For COC1=C(OCc2ccccc2)C(O)C(C/C=C(\C)CC/C=C(\C)CCC=C(C)C)C(C)C1=O (stereo not shown) [Compound 31, 3-(benzyloxy)-4-hydroxy-2-methoxy-6-methyl-5-[(2E,6E)-3,7,11-trimethyldodeca-2,6,10-trien-1-yl]cyclohex-2-en-1-one], the “cytotoxic effect compared with Compound 1” value was “even more cytotoxic than Compound 1”.
